Consider 8 compounds from ChEMBL document CHEMBL3112402, “Chemical constituents of Plectranthus amboinicus and the synthetic analogs possessing anti-inflammatory activity” (Bioorg Med Chem, 2014).

Molecules are shown by their SMILES. pIC50: −log10 of the molar value.

Tested on in the first assay: not listed separately
The experiment in a line: Antiinflammatory activity in PMA-activated human U937 cells assessed as inhibition of LPS-induced TNF-alpha expression preincubated for 2 hrs followed by LPS challenge measured after 6 hrs by ELISA. Format: functional, cell-based. The note with it: U-937. For orientation: An ELISA detects its analyte on a solid surface through an enzyme-linked reagent.
By pIC50 is commonly meant −log10 of the IC50, conventionally taken in molar units. As for `CC(C)C=C1C(=O)C=CC1=O`, the pIC50 is 5.29. For the compound `C/C=C1\C(=O)C=C(C(C)C)C1=O`, the pIC50 is 4.63.

As for `CC1=CC(=O)/C(=C\C(C)C)C1=O`, the pIC50 is 5.00. `CC1=CC(=O)C(C(C)C)=CC1=O` [THYMOQUINONE]: the pIC50 is 3.99.

The target of a further assay is Transcription factor Jun (Homo sapiens, UniProt P05412). Kind of assay: Inhibition of transcription factor AP-1 binding to oligonucleotide containing TPA-responsive element in TPA-activated human HeLa cells after 1 hr by ELISA. Format: cell-based.
Sequence of Transcription factor Jun (P05412 whole entry): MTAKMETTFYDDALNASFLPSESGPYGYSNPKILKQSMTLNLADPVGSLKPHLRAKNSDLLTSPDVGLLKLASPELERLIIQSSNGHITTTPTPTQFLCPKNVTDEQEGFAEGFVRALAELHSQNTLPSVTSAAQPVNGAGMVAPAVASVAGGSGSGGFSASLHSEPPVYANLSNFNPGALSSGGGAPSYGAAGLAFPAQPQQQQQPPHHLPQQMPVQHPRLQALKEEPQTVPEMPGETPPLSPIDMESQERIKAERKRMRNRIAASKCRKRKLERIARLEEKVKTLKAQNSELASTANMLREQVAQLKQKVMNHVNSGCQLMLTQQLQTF
Details: not given
Take `O=C(O[C@H](Cc1ccc(O)c(O)c1)C(=O)O)[C@H]1[C@H](C(=O)O[C@H](Cc2ccc(O)c(O)c2)C(=O)O)[C@H](c2ccc(O)c(O)c2)[C@H]1c1ccc(O)c(O)c1`: the pIC50 was 5.89. On to `O=C(O[C@H](Cc1ccc(O)c(O)c1)C(=O)O)C1=Cc2ccc(O)c(O)c2C(C(=O)O[C@H](Cc2ccc(O)c(O)c2)C(=O)O)C1c1ccc(O)c(O)c1` (stereo partly drawn), for which the pIC50 was 5.80. `O=C(O)/C(=C\c1ccc(O)c(O)c1)C(c1ccc(O)c(O)c1)C(O)C(=O)O` (stereo not drawn) showed a pIC50 of 4.92. Compound `O=C(/C=C/c1ccc(O)c(O)c1)O[C@H](Cc1ccc(O)c(O)c1)C(=O)O` [ROSMARINIC ACID] had a pIC50 of 4.79.
